Assay results reported in patent publication US9060515B2, “Heterocyclic urea compounds” (BIOTA EUROPE LTD, priority 2011, dated 2015).
Values after ≈ are worked out from the molar mass of the structure shown.

What was measured:
Format in all cases: cell-based
[1] = tested on: S. aureus (ATCC 29213); test: Antibacterial susceptibility testing (MIC, broth microdilution or agar dilution), S. aureus; conditions: Staphylococcus aureus, ATCC29213; read-out: S. aureus (ATCC 29213) minimal inhibitory concentration (MIC)
In short: (§1)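 MICs by CLSI (M7-A7) broth microdilution or agar dilution, against reference ATCC strains as listed.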

[2] = tested on: S. pyogenes (ATCC 51339); test: Antibacterial susceptibility testing (MIC, broth microdilution or agar dilution), S. pyogenes; conditions: Streptococcus pyogenes, ATCC51339; read-out: S. pyogenes (ATCC 51339) minimal inhibitory concentration (MIC)
In short: as §1

[3] = tested on: H. influenzae (ATCC 49247); test: Antibacterial susceptibility testing (MIC, broth microdilution or agar dilution), H. influenzae; conditions: Haemophilus influenzae, ATCC49247; read-out: H. influenzae (ATCC 49247) minimal inhibitory concentration (MIC)
Experimental: Compounds of the invention were tested for antimicrobial activity by susceptibility testing in liquid or on solid media. MICs for compounds against each strain were determined by the broth microdilution or agar dilution method according to the guidelines of the Clinical Laboratories and Standards Institute, formerly the National Committee for Clinical Laboratory Standards (Clinical Laboratories and Standards Institute. Methods for Dilution Antimicrobial Susceptibility Tests for Bacteria That Grow Aerobically; Approved Standard—Seventh Edition. Document M7-A7. CLSI, Wayne, Pa., 2006; Clinical Laboratories and Standards Institute. The Gram positive bacterial strains tested include S. aureus (Staphylococcus aureus (Isolate ID ATCC 29213)), E. faecalis (Enterococcus faecalis (Isolate ID ATCC 29212)) and S. pyogenes (Streptococcus pyogenes (Isolate ID ATCC 51339)). The Gram negative bacterial strains tested include H. influenzae (Haemophilus influenzae (Isolate ID ATCC 49247)).

[4] = tested on: E. faecalis (ATCC 29212); test: Antibacterial susceptibility testing (MIC, broth microdilution or agar dilution), E. faecalis; conditions: Enterococcus faecalis, ATCC29212; read-out: E. faecalis (ATCC 29212) minimal inhibitory concentration (MIC)
In short: as §1

Row | Structure (SMILES) | MIC [1] | MIC [2] | MIC [3] | MIC [4]
1 | CCNC(=O)Nc1cc(Nc2cc(F)cc(F)c2)c(C(=O)Nc2ccc(CCC(=O)O)cc2)cn1 [Compound 235, 3-{4-[({4-[(3,5-difluorophenyl)amino]-6-[(ethylcarbamoyl)amino]pyridin-3-yl}carbonyl)amino]phenyl}propanoic acid] | ≤ 1 µg/mL | ≤ 1 µg/mL | 4 µg/mL (≈ 8.27 µM) | ≤ 1 µg/mL
2 | CCNC(=O)Nc1cc(Nc2cccc(F)c2)c(C(=O)Nc2ccc(CC(C)(C)C(=O)O)cc2)cn1 [Compound 181, 3-{4-[({6-[(ethylcarbamoyl)amino]-4-[(3-fluorophenyl)amino]pyridin-3-yl}carbonyl)amino]phenyl}-2,2-dimethylpropanoic acid] | ≤ 1 µg/mL | ≤ 1 µg/mL | ≤ 1 µg/mL | ≤ 1 µg/mL
3 | CCNC(=O)Nc1cc(Nc2cccc(F)c2)c(C(=O)Nc2ccc(CCC(=O)O)cc2)cn1 [Compound 221, 3-{4-[({6-[(ethylcarbamoyl)amino]-4-[(3-fluorophenyl)amino]pyridin-3-yl}carbonyl)amino]phenyl}propanoic acid] | ≤ 1 µg/mL | ≤ 1 µg/mL | ≤ 1 µg/mL | ≤ 1 µg/mL
4 | CCNC(=O)Nc1cc(Nc2ccc(C)c(F)c2)c(C(=O)Nc2ccc(CCC(=O)O)cc2)cn1 [Compound 222, 3-{4-[({6-[(ethylcarbamoyl)amino]-4-[(3-fluoro-4-methylphenyl)amino]pyridin-3-yl}carbonyl)amino]phenyl}propanoic acid] | ≤ 1 µg/mL |  | ≤ 1 µg/mL | ≤ 1 µg/mL
5 | CCNC(=O)Nc1cc(Nc2ccc(C(=O)OC)cc2)c(C(=O)Nc2ccc(CC(C)(C)C(=O)O)cc2)cn1 [Compound 196] | ≤ 1 µg/mL | ≤ 1 µg/mL | ≤ 1 µg/mL | ≤ 1 µg/mL
6 | CCNC(=O)Nc1cc(Nc2ccc(F)c(Cl)c2)c(C(=O)Nc2ccc(CCC(=O)O)cc2)cn1 [Compound 229, 3-{4-[({4-[(3-chloro-4-fluorophenyl)amino]-6-[(ethylcarbamoyl)amino]pyridin-3-yl}carbonyl)amino]phenyl}propanoic acid] | ≤ 1 µg/mL | ≤ 1 µg/mL | ≤ 1 µg/mL | ≤ 1 µg/mL
7 | CCNC(=O)Nc1cc(Nc2cncc(F)c2)c(C(=O)Nc2ccc(CCC(=O)O)cc2)cn1 [Compound 236] | 4 µg/mL (≈ 8.57 µM) |  | 4 µg/mL (≈ 8.57 µM) | ≤ 1 µg/mL
8 | CCNC(=O)Nc1cc(Nc2ccc(F)cc2F)c(C(=O)Nc2ccc(CCC(=O)O)cc2)cn1 [Compound 230, 3-{4-[({4-[(2,4-difluorophenyl)amino]-6-[(ethylcarbamoyl)amino]pyridin-3-yl}carbonyl)amino]phenyl}propanoic acid] | ≤ 1 µg/mL |  | ≤ 1 µg/mL | ≤ 1 µg/mL
9 | CCNC(=O)Nc1cc(Nc2cc(F)c(F)c(F)c2)c(C(=O)Nc2ccc(CCC(=O)O)cc2)cn1 [Compound 189] | ≤ 1 µg/mL | ≤ 1 µg/mL | ≤ 1 µg/mL | ≤ 1 µg/mL
10 | CCNC(=O)Nc1cc(Nc2ccc(C#N)cc2)c(C(=O)Nc2ccc(CC(C)(C)C(=O)O)cc2)cn1 [Compound 188, 3-{4-[({4-[(4-cyanophenyl)amino]-6-[(ethylcarbamoyl)amino]pyridin-3-yl}carbonyl)amino]phenyl}-2,2-dimethylpropanoic acid] | ≤ 1 µg/mL | ≤ 1 µg/mL | ≤ 1 µg/mL | ≤ 1 µg/mL
11 | CCNC(=O)Nc1cc(Nc2cccc(C#N)c2)c(C(=O)Nc2ccc(CC(C)(C)C(=O)O)cc2)cn1 [Compound 199, 3-{4-[({4-[(3-cyanophenyl)amino]-6-[(ethylcarbamoyl)amino]pyridin-3-yl}carbonyl)amino]phenyl}-2,2-dimethylpropanoic acid] | 2 µg/mL (≈ 4 µM) |  | 2 µg/mL (≈ 4 µM) | ≤ 1 µg/mL
12 | CCNC(=O)Nc1cc(Nc2ccc(Cl)cc2F)c(C(=O)Nc2ccc(CCC(=O)O)cc2)cn1 [Compound 224, 3-{4-[({4-[(4-chloro-2-fluorophenyl)amino]-6-[(ethylcarbamoyl)amino]pyridin-3-yl}carbonyl)amino]phenyl} propanoic acid] | ≤ 1 µg/mL | ≤ 1 µg/mL | ≤ 1 µg/mL | ≤ 1 µg/mL
13 | CCNC(=O)Nc1cc(Nc2cc(F)cc(F)c2)c(C(=O)Nc2ccc(CC(C)(C)C(=O)O)cc2)cn1 [Compound 239, 3-{4-[({4-[(3,5-difluorophenyl)amino]-6-[(ethylcarbamoyl)amino]pyridin-3-yl}carbonyl)amino]phenyl}-2,2-dimethyl propanoic acid] | ≤ 1 µg/mL |  | ≤ 1 µg/mL | ≤ 1 µg/mL
14 | CCNC(=O)Nc1cc(Nc2cc(F)cc(F)c2)c(C(=O)Nc2ccc(C3CC3C(=O)O)cc2)cn1 (stereo not shown) [Compound 238, 2-{4-[({4-[(3,5-difluorophenyl)amino]-6-[(ethylcarbamoyl)amino]pyridin-3-yl}carbonyl)amino]phenyl}cyclopropanecarboxylic acid] | ≤ 1 µg/mL |  | ≤ 1 µg/mL | ≤ 1 µg/mL
15 | CCNC(=O)Nc1cc(Nc2cc(Cl)cc(Cl)c2)c(C(=O)Nc2ccc(CCC(=O)O)cc2)cn1 [Compound 228, 3-{4-[({4-[(3,5-dichlorophenyl)amino]-6-[(ethylcarbamoyl)amino]pyridin-3-yl}carbonyl)amino]phenyl}propanoic acid] | ≤ 1 µg/mL | ≤ 1 µg/mL | ≤ 1 µg/mL | ≤ 1 µg/mL
16 | CCNC(=O)Nc1cc(Nc2ccc(F)c(F)c2)c(C(=O)Nc2ccc(CCC(=O)O)cc2)cn1 [Compound 220, 3-{4-[({4-[(3,4-difluorophenyl)amino]-6-[(ethylcarbamoyl)amino]pyridin-3-yl}carbonyl)amino]phenyl}propanoic acid] | ≤ 1 µg/mL | ≤ 1 µg/mL | ≤ 1 µg/mL | ≤ 1 µg/mL
17 | CCNC(=O)Nc1cc(Nc2ccccc2)c(C(=O)Nc2ccc(S(N)(=O)=O)cc2)cn1 [Compound 231, 6-[(ethylcarbamoyl)amino]-4-(phenylamino)-N-(4-sulfamoylphenyl)pyridine-3-carboxamide] | 4 µg/mL (≈ 8.8 µM) |  | 4 µg/mL (≈ 8.8 µM) | ≤ 1 µg/mL
18 | CCNC(=O)Nc1cc(Nc2ccccc2)c(C(=O)Nc2ccc(-n3cccc3C(=O)O)cc2)cn1 [Compound 198, 1-{4-[({6-[(ethylcarbamoyl)amino]-4-(phenylamino)pyridin-3-yl}carbonyl)amino]phenyl}-1H-pyrrole-2-carboxylic acid] | 8 µg/mL (≈ 16.5 µM) |  | 4 µg/mL (≈ 8.26 µM) | ≤ 1 µg/mL
